Like-named read-outs stand apart in the source and are kept apart here.
Key:
[1] = biological target: T1, human Kv4.3/KChIP2.2 potassium channel (Homo sapiens, UniProt Q9UK17); test: Whole cell patch clamp, CHO-K1 cells stably expressing human Kv4.3/KChIP2.2; type: cell-based; details: CHO-K1
T1 construct: expressed in transfected cells
T1 sequence (Q9UK17 1-655): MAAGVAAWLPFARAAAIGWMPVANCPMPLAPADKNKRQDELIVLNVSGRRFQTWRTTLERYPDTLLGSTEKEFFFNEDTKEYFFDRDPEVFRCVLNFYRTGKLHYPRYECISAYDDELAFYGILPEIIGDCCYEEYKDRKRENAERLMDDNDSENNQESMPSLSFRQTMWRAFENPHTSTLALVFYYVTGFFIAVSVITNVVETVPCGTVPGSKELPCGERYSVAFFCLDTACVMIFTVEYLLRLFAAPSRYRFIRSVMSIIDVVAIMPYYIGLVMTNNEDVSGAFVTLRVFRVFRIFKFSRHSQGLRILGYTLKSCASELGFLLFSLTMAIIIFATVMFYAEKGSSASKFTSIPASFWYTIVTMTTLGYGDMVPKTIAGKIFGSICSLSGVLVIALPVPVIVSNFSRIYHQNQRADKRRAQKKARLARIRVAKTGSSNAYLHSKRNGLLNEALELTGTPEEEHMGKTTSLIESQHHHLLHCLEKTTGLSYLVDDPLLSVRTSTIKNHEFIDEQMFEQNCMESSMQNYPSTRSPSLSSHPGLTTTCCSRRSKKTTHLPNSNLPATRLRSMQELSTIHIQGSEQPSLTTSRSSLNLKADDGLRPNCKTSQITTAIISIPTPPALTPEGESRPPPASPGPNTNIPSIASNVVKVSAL
Method: For this experiment, a recombinant CHO-K1 cell line stably expressing the human Kv4.3/KChIP2.2 potassium channel was used. The cells used for this experiment were kept in continuous culture under standard conditions (37° C., air supplemented with 7% CO2). The CHO-K1 Kv4.3/KChIP2.2 cells were kept in Iscove s modified DMEM (Dulbecco's Modified Eagle's Medium) medium (IMEM) supplemented with 100 U/ml Penicillin, 100 μg/ml Streptomycin, 7% fetal calf serum (FCS), 2.5 μg/ml amphotericin, 400 μg/ml G418, and 400 μg/ml Zeocin™. Cells were passed every 3-4 days after detachment using a Trypsin solution. The quality of the cultured cells was guaranteed by vitality and contamination tests. The culture of the cells was performed as described in protocol D hereunder.
10 mM stock solutions of the compounds were prepared in DMSO. Solutions of the compounds were prepared by dilution of stock solution in bath solution. If the required stock solution volume was theoretically below 1 μl, bath solutions with higher compound concentration were used for dilution. The maximal DMSO concentration during experiments was 0.1% (v/v).
Activity of the human Kv4.3/KChIP2.2 channel was investigated using the patch clamp technique in its whole cell mode. This means that the current needed for clamping the whole cell expressing the K^+-channel protein to a specific potential was measured. Experiments were performed using a patch clamp set-up. Technical equipment needed for manipulation of the cells was placed on a vibration-isolated table and shielded with a Faraday cage to minimize electrical noise. The amplifier and control system were placed in a rack outside the Faraday cage. The system consisted of an EPC9 or EPC10 patch clamp amplifier (HEKA, Lambrecht, Germany), and the perfusion system DADVC8 (ALA Scientific, New York, USA) controlled by the Pulse software package (HEKA, Lambrecht, Germany) installed on a personal computer. The pipettes used for patch clamping were made of borosilicate glass.
Measurements were performed at room temperature (20-25° C.). In each experiment (i.e. each cell) only one concentration of the compounds was investigated no cumulative dosages were performed. Each cell acted as its own control. […]
Between voltage pulses the cell was clamped to a holding potential of −80 mV (inside). The test protocols are illustrated in FIG. 1 and Table 4. The test protocol illustrated in FIG. 1a was used to characterize the properties of the Kv4.3/KChIP2.2 channel and to check the quality of the individual patch clamp experiment (voltage control). […] Each test protocol consisted of 4 segments.
After the whole cell configuration was established a current-voltage curve (IV activation 1; FIG. 1a and Table 4a) was recorded under constant superfusion with bath solution to check for Kv4.3/KChIP2.2 expression and the quality of the individual patch clamp experiment (voltage control). Subsequently, 14 test pulses (series 1; FIG. 1b and Table 4b) were applied at 0.1 Hz under constant superfusion with bath solution. The protocol was initiated by a voltage jump to 100 mV (400 ms) to achieve full inactivation. Then the Kv4.3/KChIP2.2 channels were transferred to the open state by depolarization to +40 mV for 300 milliseconds (activation). Only cells generating current amplitudes between 1 nA and 50 nA were used for the experimental procedure. No or negligible rundown was observed.
Then, 36 test pulses (series 2) were applied at 0.1 Hz under constant superfusion with the compound dissolved in bath solution. Finally, another current-voltage curve was recorded in the presence of the compounds (IV activation 2).
Three different types of analysis were used: Inhibition at the peak current, inhibition of translocated charge and inhibition 75 ms after activation at +40 mV (sustained current). The peak current/charge/current at 75 ms was determined using the online analysis tool of the HEKA pulse software package. […]

[2] = remaining current measured after application of the compound and relative to the blank, read-out: Kv4.3 charge in %
[3] = remaining peak height measured after application of the compound and relative to the blank, read-out: Kv4.3 peak in %

remaining activity at 1 µM [1, 2]	remaining activity at 1 µM [1, 3]	melting point	Compound
74%	80%	166.8 to 168.3 °C	COc1ccccc1Nc1nc(C)c(C(=O)NCc2ccc(C)cc2)s1 [Compound 142, 2-(2-methoxy-phenylamino)-4-methyl-thiazole-5-carboxylic acid 4-methyl-benzylamide]
74%	95%	89.3 to 92.5 °C	COc1ccccc1Nc1nc(C)c(C(=O)N2CCN(Cc3ccccc3)C[C@@H]2Cc2ccccc2)s1 [Compound 125, ((S)-2,4-dibenzyl-piperazin-1-yl)-[2-(2-methoxy-phenylamino)-4-methyl-thiazol-5-yl]-methanone]
86%	98%	185.1 to 185.8 °C	Cc1nc(NCc2ccccc2)sc1C(=O)N[C@H]1CCC[C@@H]1OCc1ccccc1 [Compound 211, 2-benzylamino-4-methyl-thiazole-5-carboxylic acid ((1S,2S)-2-benzyloxycyclopent-1-yl) amide]
85%	94%	153.4 to 154.8 °C	COc1ccccc1Nc1nc(C)c(C(=O)NCc2ccsc2)s1 [Compound 118, 2-(2-methoxy-phenylamino)-4-methyl-thiazole-5-carboxylic acid (thiophen-3-ylmethyl)-amide]
88%	87%	259.6 to 262 °C	COc1ccccc1Nc1nc(C)c(C(=O)N[C@H](C(=O)O)c2ccccc2)s1 [Compound 114, (S)-{[2-(2-methoxy-phenylamino)-4-methyl-thiazole-5-carbonyl]-amino}-phenyl-aceticacid]
31%	72%	98.4 to 100 °C	COc1ccccc1Nc1nc(C)c(C(=O)OCc2ccccc2)s1 [Compound 123, 2-(2-methoxy-phenylamino)-4-methyl-thiazole-5-carboxylic acid benzyl ester]
90%	95%	153.6 to 156.2 °C	COc1ccccc1Nc1nc(C)c(C(=O)NCc2ccccc2)s1 [Compound 124, 2-(2-methoxy-phenylamino)-4-methyl-thiazole-5-carboxylic acid benzylamide]
82%	96%	159.3 to 163.5 °C	COc1ccccc1Nc1nc(C)c(C(=O)N2CCc3ccccc3C2)s1 [Compound 85, (3,4-dihydro-1H-isoquinolin-2-yl)-[2-(2-methoxy-phenylamino)-4-methyl-thiazol-5-yl]-methanone]
87%	99%	147.6 to 149.6 °C	COc1ccccc1Nc1nc(C)c(C(=O)N2Cc3ccccc3C2)s1 [Compound 84, (1,3-dihydro-isoindol-2-yl)-[2-(2-methoxy-phenylamino)-4-methyl-thiazol-5-yl]-methanone]
79%	102%	93.2 to 95.6 °C	COc1ccccc1Nc1nc(C)c(C(=O)N2CCCCC2Cc2ccccc2)s1 (stereo not drawn) [Compound 86, (2-benzyl-piperidin-1-yl)-[2-(2-methoxy-phenylamino)-4-methyl-thiazol-5-yl]-methanone]
82%	91%	183.5 to 188.1 °C	COc1ccccc1Nc1nc(C)c(C(=O)Nc2ccccc2)s1 [Compound 82, 2-(2-methoxy-phenylamino)-4-methyl-thiazole-5-carboxylic acid phenylamide]
90%	99%	124.1 to 124.9 °C	COc1ccccc1Nc1nc(C)c(C(=O)NCc2cc(C)ccc2C)s1 [Compound 160, 2-(2-methoxy-phenylamino)-4-methyl-thiazole-5-carboxylic acid 2,5-dimethyl-benzylamide]

Reference: patent publication US20080125432A1 (Devgen NV, priority 2004, published 2008)
